Data on twelve compounds can be found in patent US20110306621A1, “ACYLGUANIDINE DERIVATIVES” (priority 2009, published 2011).

pKi: −log10 of the molar value. Where a name gives a salt, the structure may show the parent alone.

One assay concerns mouse in which hyperactivity was caused by methamphetamine (MAP) or MK-801. Briefly: Improvement effect on increase in motion induced by methamphetamine or MK-801 in mice. It is filed as in vivo. Particulars: male ICR mouse; compound oral at a dose of 0.1 mg/kg; MK-801 0.3 mg/kg i.p.; motion for 60 minutes; P<0.05. As for the experimental part:
The improvement effect of compound of formula (I) was evaluated by measuring the quantity of motion by IR irradiation when a compound was administered to a mouse in which hyperactivity was caused by methamphetamine (hereinafter, simply referred to as “MAP”) or MK-801, known as an animal model of schizophrenia.
The animal was taken out of the breeding cage, orally administered with a compound to be tested, and then placed into a cage for breeding. After 30 minutes, the animal was put into a cage for measurement, and motion with the compound to be tested alone was measured. After 30 to 90 minutes, the animal was taken out, and intraperitoneally administered with a drug for increasing the motion (MAP; 1 mg/kg or MK-801; 0.3 mg/kg, dissolved in a physiological saline, respectively). Then, motion for a certain period of time (60 minutes) was measured by using a motion measurement device
(CompACT AMS from Muromachi Kikai Co., Ltd.) by means of an infrared sensor.
For normal mouse (a mouse administered with physiological saline) and mouse administered with a drug for increasing the motion, a Student's T test was performed for evaluation for each interval. For a mouse group administered with the compound to be tested, an assay was performed using a solvent (vehicle) group and a Dunnett's T test. […]
For the compound `NC(N)=NC(=O)c1ccc2cccc(-c3c(F)cccc3Cl)c2c1` [Example 1, 8-(2-chloro-6-fluorophenyl)-N-(diaminomethylene)-2-naphthamide hydrochloride], the “inhibition of hyperactivity caused by MK-801” value is recorded as “significantly inhibited”.

In the next assay the target is T1, human 5-HT5A receptor (Homo sapiens, UniProt P47898).
T1 construct: expressed in transfected cells; membranes used
T1 sequence (P47898 whole entry): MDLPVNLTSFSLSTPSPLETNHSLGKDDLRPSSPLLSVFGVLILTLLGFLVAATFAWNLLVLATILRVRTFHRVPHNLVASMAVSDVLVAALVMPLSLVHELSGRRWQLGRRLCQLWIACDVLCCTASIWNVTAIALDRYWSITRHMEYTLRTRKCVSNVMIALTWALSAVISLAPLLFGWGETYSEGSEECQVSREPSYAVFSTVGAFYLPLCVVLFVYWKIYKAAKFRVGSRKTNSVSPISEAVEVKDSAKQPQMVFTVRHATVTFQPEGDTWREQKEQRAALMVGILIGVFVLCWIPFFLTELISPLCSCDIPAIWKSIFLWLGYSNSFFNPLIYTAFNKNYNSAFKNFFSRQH
Nature of the assay: Test on a human 5-HT5A receptor binding inhibition ([3H]5-CT). Conditions: membrane from HEK293 cells for forced expression of human 5-HT5A receptor; Ki calculated from IC50 and Kd of [3H]5-CT (4.95 nM). In outline: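 Membranes from HEK293 cells stably expressing human 5-HT5A, preincubated with compound 15 min at room temperature, then 2 nM [3H]5-CT added (stock solution), 37 °C for 60 min; filter-bound radioactivity counted. IC50 versus 1 μM 5-CT as full inhibition; Ki via Cheng–Prusoff using Kd 4.95 nM.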
As for `NC(N)=NC(=O)c1ccc2cccc(-c3c(F)cccc3Cl)c2c1` [Example 1, 8-(2-chloro-6-fluorophenyl)-N-(diaminomethylene)-2-naphthamide hydrochloride], the pKi (in general, the Ki on a negative log10 scale, so that one unit is a factor of ten) was 9.02.

`NC(N)=NC(=O)c1ccc2cccc(-c3ncc(C4CC4)cc3Cl)c2c1` [Example 192]: the pKi was 7.52 to 8.52.

For `Cc1c(-c2cccc3ccc(C(=O)N=C(N)N)cc23)ncnc1C1CC1` [Example 193], the pKi was 6.52 to 7.52.

Consider `NC(N)=NC(=O)c1ccc2cccc(-c3ncc(C(F)(F)F)cc3Cl)c2c1` [Example 194], for which the pKi was 7.52 to 8.52.

Regarding `COc1cccnc1-c1cccc2ccc(C(=O)N=C(N)N)cc12` [Example 195], the pKi is 6.52 to 7.52.

`N#Cc1cnc(-c2cccc3ccc(C(=O)N=C(N)N)cc23)c(Cl)c1` [Example 196]: the pKi was 7.52 to 8.52.

As for `NC(N)=NC(=O)c1ccc2cccc(-c3cc(Cl)ncc3F)c2c1` [Example 197], the pKi is 8.52 to 9.52.

Consider `NC(N)=NC(=O)c1ccc2cccc(-c3ccnc(C4CC4)c3F)c2c1` [Example 198], for which the pKi was 8.52 to 9.52.

On to `NC(N)=NC(=O)c1ccc2cccc(-c3cc(C4CC4)ncc3F)c2c1` [Example 199], for which the pKi is 7.52 to 8.52.

For `Cc1cnc(-c2cccc3ccc(C(=O)N=C(N)N)cc23)c(Cl)c1` [Example 200], the pKi was 7.52 to 8.52.

For the compound `NC(N)=NC(=O)c1ccc2cccc(-c3ccccn3)c2c1` [Example 201], the pKi was 7.52 to 8.52.

With `NC(N)=NC(=O)c1ccc2cccc(-c3ccnc(C4CC4)c3C3CC3)c2c1` [Example 202], the pKi was 7.52 to 8.52.
